# Reference: publication PMC6278385, “Preclinical Pharmacokinetics of C118P, a Novel Prodrug of Microtubules Inhibitor and Its Metabolite C118 in Mice, Rats, and Dogs” (Molecules, 2018)
# Like-named read-outs stand apart in the source and are kept apart here.
# Experiments:
# [1] = Metabolic stability in liver microsomes; assay type: in vitro ADME, human
# Description: The in vitro metabolic stability of C118P and C118 were estimated in mice, rat, dog, monkey, and human liver microsomes (Research Institute for Liver Diseases Co. Ltd (Shanghai, China)). The incubation mixture contains C118P or C118, NADP (1.0 mM), G-6-P (10 mM), PDH (2 units/mL), MgCl2 (10 mM), and liver microsomes (mice, rats, dogs, monkeys, or humans, 1.0 mg protein/mL) in phosphate buffer. A total of 200 μL of the mixture was removed and quenched with 600 μL acetonitrile in an ice bath at 0, 15, 30, 60, 120, and 240 min after the addition of NADPH.
# CLint, in vitro (the in vitro intrinsic clearance, Equation (1)) was calculated from the t1/2 of C118 disappearance, where Cprotein is the protein concentration during the incubation, and t1/2 was determined by the slope (k) of the log-linear regression analysis of the concentration versus time profiles; thus, t1/2 = ln2/k. […] The in vivo hepatic clearance (CLH, Equation (3)) was then calculated by using CLint and hepatic blood flow, Q ([…] mL·min^−1·kg^−1 in rats, dogs, monkey, and humans, respectively), in the well-stirred liver model disregarding all binding. The hepatic extraction ratio was calculated as CLH divided by Q. CLint, in vitro = (0.693/t1/2) × (1/Cprotein)(1) CLint = CLint, in vitro × (mg protein/g liver weight) × (gliver weight/kg body weight)(2) CLH = (Q × CLint)/(Q + CLint)(3)
# [2] = Tissue distribution in rats; assay type: in vivo; settings: for concentration at 10 min: both sexes, Sprague-Dawley (SD), rat, iv, 10 min after i.v. 20 mg/kg of C118P
# Description: Eighteen rats (weight 220–260 g) with half males and half females were randomly assigned to there groups to carry out a tissue distribution study and fasted overnight. Blood and tissue samples, including the brain, skin, muscle, fat, testicle/ovary, pancreas, spleen, kidney, stomach, small intestine, heart, liver, lung, thymus, and thighbone were collected at 10 min, 1, and 4 h after intravenous administration (20 mg/kg). Blood was centrifuged for plasma samples. Tissue samples were rinsed with water to remove the blood and blotted dry with filter paper. An accurately-weighed amount of the tissue sample (0.2 g) or the entire organ for which weight less than 0.2 g was individually homogenized with EDTA solution (40 mg/mL, 2.0 mL). The left thigh bone was crushed and then soaked overnight in methanol-EDTA solution (1:1, v/v). A volume of 50 μL of homogenate or soak solution was prepared by protein precipitation and determined by the method described above. Tissue weights were used for calculating the concentrations (ng/g) of C118P and C118 in tissues.
# [3] = Tissue distribution in tumor bearing mice; assay type: in vivo, nude mice (BALB/cA) implanted with NCI-H460 tumor
# Description: The nude mice (BALB/cA) implanted with NCI-H460 tumor were provided by Shanghai Institute of Materia Medica. A total of 36 mice were divided into 9 groups with four animals in each group. After fasting overnight with free access to water, the mice were treated with 75 mg/kg C118P by i.v. The blood samples were collected at 2, 10, 20, 40 min, 1, 2, 4, 8, 12 h after treatment and the mice were anaesthetized and decapitated to obtain the blood and tumor tissue. Blood, brain, muscle, ovary, and lung from mice in the PK study were collected at 10 min, 1, 4, and 12 h. Tissues were cleaned by absorbent filter paper to remove the blood. Bloods were centrifuged at 10,000× g for 5 min. Each tissue (0.2 g) was homogenized with 2 mL water. The plasma samples and the homogenates were then processed and determined by the method described above. The concentration was determined by the calibration curve and the actual concentration was corrected by multiplying by 10 according to the dilution times. […]
# 4. The distribution of CA4P and CA4 in tumor bearing mice.
# The nude mice (BALB/cA) implanted with NCI-H460 tumor were provided by Shanghai institute of Materia Medica. A total of 36 mice were divided into 9 groups with 4 animals in each group.
# After fasted overnight with free access to water, the mice were treated with 75 mg/kg CA4P by i.v.
# The blood samples were collected at 2, 10, 20, 40 min, 1, 2, 4, 8, 12 h after treatment and the mice were anaesthetized and decapitated to obtain the blood and tumor tissue. All procedure are same as C118P in the main text. The concentration was determined by the calibration curve and the actual concentration was corrected by multiplying by 10 according to the dilution times.
# [4] = 0.17 h after i.v. 75 mg/kg of C118P, n = 4
# [5] = 1 h after i.v. 75 mg/kg of C118P, n = 4
# [6] = 4 h after i.v. 75 mg/kg of C118P, n = 4
# [7] = 12 h after i.v. 75 mg/kg of C118P, n = 4
# [8] = 0.17 h after i.v. 75 mg/kg of C118P, n = 4, in ng/g
structure (smiles),measurement,setting,value
COc1cc(OC)cc(-c2nc[nH]c2-c2ccc(OC)c(OP(=O)([O-])[O-])c2)c1.[Na+].[Na+] [C118P],stability in liver microsomes,[1]; human liver microsomes (Figure S1),quite stable
same,tissue concentration,"[2]; 10 min, 1 h and 4 h after i.v. 20 mg/kg of C118P, LLOQ 50 ng/g for tissues",below or slightly higher than the LLOQ
same,concentration in Lung,[3]; [4],130.2 ± 7.5
same,concentration in Plasma,[3]; [4],5199.4 ± 2147.9
same,concentration in Tumor,[3]; [4],115.8 ± 24.1
same,concentration in muscle,[3]; [4],355.4 ± 64.1
same,concentration in Plasma,[3]; [5],191.2 ± 60.5
same,concentration in Tumor,[3]; [5],73.0 ± 15.0
same,concentration in Plasma,[3]; [6],14.7 ± 8.4
same,concentration in Tumor,[3]; [6],26.7 ± 0.0
same,concentration in Plasma,[3]; [7],6.1 ± 0.0
COc1cc(OC)cc(-c2nc[nH]c2-c2ccc(OC)c(O)c2)c1 [C118],"CLint, in vitro",[1]; human liver microsomes,58.2 μL·min^−1·mg^−1 Protein
same,half-life,"[1]; human liver microsomes, 1.0 mg protein/mL, C118 disappearance",11.9 min
same,CLint,"[1]; human, scaled from CLint, in vitro",47.9 mL/min/kg
same,Extrapolated CLH,"[1]; human, well-stirred liver model",14.1 mL/min/kg
same,tissue concentration in most tissues,"[2]; 4 h after i.v. 20 mg/kg of C118P, LLOQ 50 ng/g for tissues",below or slightly higher than LLOQ
same,concentration at 10 min,"[2]; heart, read-out: tissue concentration in heart",6340 ± 4130 ng/g
same,concentration at 10 min,"[2]; kidney, read-out: tissue concentration in kidney",7640 ± 3410 ng/g
same,concentration at 10 min,"[2]; lung, read-out: tissue concentration in lung",12900 ng/g
same,concentration in muscle,[3]; [4],"15,202.5 ± 8814.7"
same,concentration in ovary,[3]; [4],"26,723.8 ± 18,229.6"
same,concentration in Lung,[3]; [8],"26,923.2 ± 4389.0"
same,concentration in Tumor,[3]; [8],"14,563.3 ± 1989.9"
same,concentration in brain,[3]; [8],3562.8 ± 796.6
same,concentration in Plasma,"[3]; 0.17 h after i.v. 75 mg/kg of C118P, n = 4, in ng/mL","26,048.0 ± 2429.7"
same,concentration in Lung,[3]; [5],1852.3 ± 929.3
same,concentration in Plasma,[3]; [5],1730.0 ± 986.4
same,concentration in Tumor,[3]; [5],"12,998.1 ± 4132.3"
same,concentration in brain,[3]; [5],1250.7 ± 351.3
same,concentration in muscle,[3]; [5],946.8 ± 390.6
same,concentration in ovary,[3]; [5],3308.6 ± 2611.1
same,concentration in Lung,[3]; [6],231.3 ± 181.7
same,concentration in Plasma,[3]; [6],132.6 ± 56.8
same,concentration in Tumor,[3]; [6],4969.8 ± 3414.7
same,concentration in brain,[3]; [6],109.1 ± 22.0
same,concentration in muscle,[3]; [6],136.4 ± 2.8
same,concentration in Tumor,[3]; [7],1327.7 ± 1124.0
